In brackets after ≈: the same amount, converted by molar mass.
Legend:
Format in all cases: cell-based
[1] = tested on: Leuconostoc mesenteroides ssp. mesenteroides; test: Antimicrobial activity (MIC); settings: Leuconostoc mesenteroides, DSM20343; Strain ID DSM 20343; potato dextrose broth pH 3.8; read-out: Minimal Inhibitory Concentration (MIC)
[2] = tested on: Lactobacillus paracasei ssp. paracasei; test: Antimicrobial activity (MIC); settings: Lacticaseibacillus paracasei, DSM46331; Strain ID DSM 46331; potato dextrose broth pH 3.8; read-out: Minimal Inhibitory Concentration (MIC)
Malassezia furfur = test: Antimicrobial activity (MIC); settings: Malassezia furfur, DSM6170; Strain ID DSM 6170; potato dextrose broth pH 3.8; read-out: Minimal Inhibitory Concentration (MIC)
Enterococcus faecalis = test: Antimicrobial activity (MIC); settings: Enterococcus faecalis, ATCC7080; Strain ID ATCC 7080; potato dextrose broth pH 3.8; read-out: Minimal Inhibitory Concentration (MIC)
Yarrowia lipolytica = test: Antimicrobial activity (MIC); settings: Yarrowia lipolytica, DSM70561; Strain ID DSM 70561; potato dextrose broth pH 3.8; read-out: Minimal Inhibitory Concentration (MIC)
Clostridium perfringens = test: microbe, parasite or virus in culture; settings: Clostridium perfringens, DSM756, pH 3.8, read-out: Minimal Inhibitory Concentration (MIC)
Enterobacter cloacae = test: Antimicrobial activity (MIC); settings: Enterobacter cloacae, DSM6234; Strain ID DSM 6234; potato dextrose broth pH 3.8; read-out: Minimal Inhibitory Concentration (MIC)
Pseudomonas aeruginosa = test: Antimicrobial activity (MIC); settings: Pseudomonas aeruginosa, DSM1117; Strain ID DSM 1117; potato dextrose broth pH 3.8; read-out: Minimal Inhibitory Concentration (MIC)
Candida albicans = test: Antimicrobial activity (MIC); settings: Candida albicans; Strain ID ATCC10231; potato dextrose broth pH 3.8; read-out: Minimal Inhibitory Concentration (MIC)
Listeria monocytogenes = test: Antimicrobial activity (MIC); settings: Listeria monocytogenes, DSM20600; Strain ID DSM 20600; potato dextrose broth pH 3.8; read-out: Minimal Inhibitory Concentration (MIC)
Corynebacterium xerosis = test: Antimicrobial activity (MIC); settings: Corynebacterium xerosis, DSM20743; Strain ID DSM 20743; potato dextrose broth pH 3.8; read-out: Minimal Inhibitory Concentration (MIC)
[3] = tested on: Alicyclobacillus acidoterrestris; test: Antimicrobial activity (MIC); settings: Alicyclobacillus acidoterrestris, DSM2498; Strain ID DSM 2498; potato dextrose broth pH 3.8; read-out: Minimal Inhibitory Concentration (MIC)
[4] = tested on: Cladosporium cladosporioides; test: Antimicrobial activity (MIC); settings: Cladosporium cladosporioides; Strain ID DSM19653; potato dextrose broth pH 3.8; read-out: Minimal Inhibitory Concentration (MIC)
[5] = tested on: Lactobacillus plantarum ssp. plantarum; test: Antimicrobial activity (MIC); settings: Lactiplantibacillus plantarum, DSM20174; Strain ID DSM 20174; potato dextrose broth pH 3.8; read-out: Minimal Inhibitory Concentration (MIC)
Zygosaccharomyces rouxii = test: Antimicrobial activity (MIC); settings: Zygosaccharomyces rouxii, DSM7525; Strain ID DSM 7525; potato dextrose broth pH 3.8; read-out: Minimal Inhibitory Concentration (MIC)
Saccharomyces cerevisiae = test: Antimicrobial activity (MIC); settings: Saccharomyces cerevisiae, DSM2548; Strain ID DSM 2548; potato dextrose broth pH 3.8; read-out: Minimal Inhibitory Concentration (MIC)
Streptococcus mutans = test: Antimicrobial activity (MIC); settings: Streptococcus mutans, DSM20523; Strain ID DSM 20523; potato dextrose broth pH 3.8; read-out: Minimal Inhibitory Concentration (MIC)
Candida parapsilosis = test: Antimicrobial activity (MIC); settings: Lodderomyces parapsilosis, ATCC20384; Strain ID ATCC 20384; potato dextrose broth pH 3.8; read-out: Minimal Inhibitory Concentration (MIC)
Actinomyces viscosus = test: Antimicrobial activity (MIC); settings: Actinomyces viscosus; Strain ID DSM43798; potato dextrose broth pH 3.8; read-out: Minimal Inhibitory Concentration (MIC)
Cutibacterium acnes = test: Antimicrobial activity (MIC); settings: Cutibacterium acnes, DSM1897; Strain ID DSM 1897; potato dextrose broth pH 3.8; read-out: Minimal Inhibitory Concentration (MIC)
Botrytis cinerea = test: Antimicrobial activity (MIC); settings: Botrytis cinerea, DSM5145; Strain ID DSM 5145; potato dextrose broth pH 3.8; read-out: Minimal Inhibitory Concentration (MIC)
Aspergillus brasiliensis = test: Antimicrobial activity (MIC); settings: Aspergillus brasiliensis, DSM1988; Strain ID DSM 1988; potato dextrose broth pH 3.8; read-out: Minimal Inhibitory Concentration (MIC)
[6] = tested on: Salmonella enterica ssp. enterica Ser. typhimurium; test: Antimicrobial activity (MIC); settings: Salmonella enterica, DSM 17058 / TYPHIMURIUM; Strain ID DSM 17058; potato dextrose broth pH 3.8; read-out: Minimal Inhibitory Concentration (MIC)
Bacillus licheniformis = test: Antimicrobial activity (MIC); settings: Bacillus licheniformis, DSM13; Strain ID DSM 13; potato dextrose broth pH 3.8; read-out: Minimal Inhibitory Concentration (MIC)
Porphyromonas gingivalis = test: Antimicrobial activity (MIC); settings: Porphyromonas gingivalis, DSM20709; Strain ID DSM 20709; potato dextrose broth pH 3.8; read-out: Minimal Inhibitory Concentration (MIC)
Staphylococcus aureus = test: Antimicrobial activity (MIC); settings: Staphylococcus aureus, DSM2569; Strain ID DSM 2569; potato dextrose broth pH 3.8; read-out: Minimal Inhibitory Concentration (MIC)
Byssochlamys fulva = test: Antimicrobial activity (MIC); settings: Paecilomyces fulvus, DSM1808; Strain ID DSM 1808; potato dextrose broth pH 3.8; read-out: Minimal Inhibitory Concentration (MIC)

Work on `C[C@@H]1O[C@@H](O[C@H]2[C@H](O[C@H]3CC[C@@]4(C)[C@@H](CC[C@]5(C)[C@@H]4CC=C4[C@@H]6CC(C)(C)CC[C@]6(C(=O)O)CC[C@]45C)[C@]3(C)CO)OC[C@H](O)[C@@H]2O)[C@H](O)[C@H](O[C@@H]2OC[C@@H](O)[C@H](O)[C@H]2O)[C@H]1O` [A, Sapindoside B [30994-75-3]] yielded an MIC [1] of over 80 µg/mL, an MIC [2] of over 80 µg/mL and an MIC (Malassezia furfur) of over 80 µg/mL. The MIC (Enterococcus faecalis) was over 80 µg/mL, the MIC (Yarrowia lipolytica) was over 80 µg/mL and the MIC (Clostridium perfringens) was over 80 µg/mL. For the same compound, the MIC (Enterobacter cloacae) was over 80 µg/mL, the MIC (Pseudomonas aeruginosa) was over 80 µg/mL and the MIC (Candida albicans) was over 80 µg/mL. The MIC (Listeria monocytogenes) was over 80 µg/mL, the MIC (Corynebacterium xerosis) was over 80 µg/mL and the MIC [3] was 40 µg/mL (≈ 45.3 µM). It also gave an MIC [4] of over 80 µg/mL, an MIC [5] of 40 µg/mL (≈ 45.3 µM) and an MIC (Zygosaccharomyces rouxii) of 500 µg/mL (≈ 566 µM). For the same compound, the MIC (Saccharomyces cerevisiae) was over 80 µg/mL, the MIC (Streptococcus mutans) was over 80 µg/mL and the MIC (Candida parapsilosis) was over 80 µg/mL. For the same compound, the MIC (Actinomyces viscosus) was over 80 µg/mL, the MIC (Cutibacterium acnes) was over 80 µg/mL and the MIC (Botrytis cinerea) was over 80 µg/mL. It also gave an MIC (Aspergillus brasiliensis) of over 80 µg/mL, an MIC [6] of over 80 µg/mL and an MIC (Bacillus licheniformis) of over 80 µg/mL. For the same compound, the MIC (Porphyromonas gingivalis) was over 80 µg/mL, the MIC (Staphylococcus aureus) was over 80 µg/mL and the MIC (Byssochlamys fulva) was over 80 µg/mL.

Source: patent EP4316461A1, “A PRESERVATIVE COMPOSITION” (BRAIN Biotech AG, priority 2022, dated 2024)
